# Columns and labels:
# [1] = test system: thermal nociceptive response; assay: Tail flick assay for thermal nociceptive response; assay type: in vivo, female BALB/c mice; details: fractions 10 mg/kg p.o., diclofenac sodium 50 mg/kg i.p.
# Protocol: b. In-vivo efficacy study in pain model using the tail flick Assay for assessment of thermal nociceptive response in female BALB/c mice
# Tail Flick Test: Prior to starting the test, the intensity of the beam was adjusted to produce a latency of approximately 3-6 sec. The was performed three times for each animal, at 3- to 5-min intervals, and the average of the three times recorded as the average reaction time (seconds). The light beam was delivered about 15 mm from the tip of the tail for mice. To minimize the chance of tissue trauma from heat exposure, a cut-off time of 10 sec was established, at which time the animal was removed from the test (Curr. Protoc. Neurosci., 2007, 41, 8.9.1). Mice were treated with diclofenac sodium (50 mg/kg. i.p.), a standard analgesic drug, CS-016-C2-F2-F2-F2 (10 mg/kg. p.o), CS-016-C2-F2-F3-F2 (10 mg/kg, p.o). and CS-016-B2 (10 mg/kg, p.o) each group contained three animals (n=3).
# Tail Flick Assay in Female BALB/c Mice. […] The data were analysed using graph-pad prism software (8.0.2). […]
# [2] = test system: paclitaxel (PT) induced neuropathic pain; assay: Randall Selitto test for mechanical hyperalgesia in paclitaxel induced neuropathic (cancer) pain model; assay type: in vivo, male BALB/c mice; details: paclitaxel 2 mg/kg i.p. (pain induction), all groups; FIGS. 7a and 7b
# Protocol: a. In-Vivo Efficacy Study in Cancer Pain Model Using the Randall Selitto Test for Assessment of Mechanical Hyperalgesia in Male BALB/c Mice
# Animals: Male BALB/C mice of weight range 25-30 g were used for evaluation of CS-016-B1 in paclitaxel (PT) induced neuropathic pain. Animals were housed under a 12-hour light/dark cycle in a temperature (65-75° F.; ^˜18-23° C.) and humidity-controlled (40-60%) environment. They were supplied with free access to the food and water (ad libitum). Prior to initiation of study all the animals were acclimatized for one week under standard laboratory conditions, animals were drug naive with no prior procedures performed. All testing were performed from 1 to 4 p.m. […]
# Development of neuropathic pain in mice: Neuropathic pain in BALB/C mice was induced by intraperitoneal (i.p.) administration of Paclitaxel (PT) at 2 mg/kg for consecutive 5 days (Sci. Rep., 2014, 4, 1). Before paclitaxel injection baseline values of pain threshold for all the animals were recorded. […]
# Experimental protocol: The present study was comprised of five experimental groups. […] Pain threshold was assessed using Randall Selitto for assessment of mechanical hyperalgesia at different time points like 0, 5th, 10th, and 15th days post dosing. […]
# Randall Selitto Test: The nociceptive withdrawal threshold was assessed by using the Randall-Selitto algesimeter (Analgesy-Meter, Ugo Basile). […]
compound,measurement,setting,value
O=C(O)Cc1ccccc1Nc1c(Cl)cccc1Cl [diclofenac sodium],latency time at 4 h relative to baseline,[1]; 4 h after treatment,comparable to that of baseline data
same,time till which the effect on latency time sustained,[1],3 h
CC(=O)O[C@H]1C(=O)[C@@]2(C)[C@H]([C@H](OC(=O)c3ccccc3)[C@]3(O)C[C@H](OC(=O)[C@H](O)[C@@H](NC(=O)c4ccccc4)c4ccccc4)C(C)=C1C3(C)C)[C@]1(OC(C)=O)CO[C@@H]1C[C@@H]2O [paclitaxel],mechanical threshold compared with the baseline data,[2],significant reduction in mechanical threshold

# Reference: patent publication US20250312357A1, “PROCESS OF PHYTOCA[…] FORMULATION AND USE IN THE MANAGEMENT OF PAIN” (COUNCIL OF SCIENTIFIC & INDUSTRIAL RESEARCH, priority 2022, published 2025)
